Where two headings read alike, the source gives them in different places.
Tests used:
allodynia [1] = experiment: Tactile allodynia (paw withdrawal threshold, % MPE) in L5/L6 spinal nerve ligated rats, Example 3; type: in vivo, Harlan Sprague-Dawley rats
Experimental: Male Harlan Sprague-Dawley rats were used (100-200 g). Rats were housed 2-3 to a cage with corn cob bedding and Purina rat chow and water ad libitum, in a standard facility with a 12 h/12 h day/night cycle. After surgical procedures involving chronic indwelling catheter insertion, animals were housed singly to prevent catheter damage.
Rats were allowed to recover 5-7 days before further testing or surgeries.
The catheters were 9 cm in intrathecal length and terminated near the lumbar enlargement. The rostral 3 cm of catheter was tunneled under the skin to externalize between the ears. Rats with neurologic deficits were discarded.
For intravascular access, external jugular catheters were fashioned from PE-50 tubing and inserted into an external jugular vein under halothane/oxygen anesthesia. Arterial catheters were also fashioned from PE-50 with a small bouton 1 cm from the intravascular end for suture securing; they were inserted into a carotid artery, taking care to spare the surrounding nerves. All catheters were flushed with heparinized saline (10 U/ml) and tunneled subcutaneously to emerge at the posterior base of the neck, and capped when not in use.
Monoethylglycinexylidide (MEGX) and 3-hydroxy monoethyl-glycinexylidide (3-OH MEGX) were dissolved in physiologic saline; 3-hydroxylidocaine (3-OH L) was dissolved in DMSO for intravenous administration.
Intravenous drugs were delivered to awake, unrestrained rats by slow infusion using a syringe pump (Harvard apparatus 22). Intrathecal drugs were delivered to awake, briefly restrained rats in a volume of 10 μl, followed by 10 μl of vehicle flush, using a calibrated tubing extension with a 30-gauge adapter fitting the implanted intrathecal catheter, attached to a geared Hamilton 100 μl glass syringe. IT drug delivery was monitored by observing the advancement of a small air bubble down the tubing.
Rats were placed in a plastic cage with an open wire mesh bottom and allowed to accommodate for approximately fifteen minutes. […] In brief, von Frey hairs were sequentially applied using an up-and-down paradigm to the left mid-plantar hindpaw with sufficient force to cause slight filament buckling. Positive responses were noted if the paw was sharply withdrawn. […] Otherwise, PWT were calculated by noting the stimulus level at which the first change in behavior occurred, collecting four additional responses to the continued up-and-down oscillation of stimulus presentation around the response threshold, and interpolating the 50% response threshold. For some comparisons, raw thresholds were converted to percent of maximum possible effect (% MPE), designating pre-treatment PWT (baselines) as 0% effect, and assigning a cutoff value of 100% effect to thresholds ≥15 g: therefore, % MPE values near 100 indicate normal mechanical thresholds (i.e., at or near 15 g), whereas values near 0 indicate allodynia. The following equation was used to compute % MPE:
% MPE=new threshold(g)-baseline threshold(g)×100/ 15 grams--baseline
Plasma drug levels and PWT were correlated using linear regression. Serially measured PWT and % MPE were compared using repeated measures ANOVA with post-hoc testing.

allodynia [2] = conditions: Chaplan et al. 1995, IV or IT, cited from earlier work
[3] = Metabolism of 14C lidocaine after IV administration, HPLC profile; type: in vivo, Harlan Sprague-Dawley and Dark Agouti rats; conditions: 14C lidocaine IV, N=2
allodynia [4] = experiment: Susceptibility of rat strains to anti-allodynia effects of lidocaine; type: in vivo, Sprague-Dawley versus Dark Agouti rats; conditions: FIG. 11 legend

Row | SMILES | suppression of allodynia after IT administration (summary) (allodynia [1]; IT) | MPE, IT 67 μg (allodynia [1]; IT, dose printed 67 μ, P<0.0001) | effect on allodynia, IV (in words) (allodynia [1]; IV infusion, 20 mg/kg) | activity as metabolite with regard to allodynia suppression (allodynia [1]; rat, in vivo) | anti-allodynic effect of lidocaine (allodynia [2]) | anti-allodynic effect of lidocaine (allodynia [2]; listed as Lidocaine) | glucuronidated 3-OH MEGX in elution profile, DA rats ([3]; Dark Agouti) | glucuronidated 3-OH MEGX in elution profile, SD rats ([3]; Sprague-Dawley) | effect on allodynia / PWT, IT 500 μg (in words) (allodynia [1]; IT, 500 μg, after recovery of motor function) | susceptibility to anti-allodynia effects of lidocaine, Dark Agouti rats (allodynia [4]) | susceptibility to anti-allodynia effects of lidocaine, Sprague-Dawley rats (allodynia [4])
1 | CCNCC(=O)Nc1c(C)ccc(O)c1C [3-hydroxy MEGX, 2-(ethylamino)-N-(3-hydroxy-2,6-dimethylphenyl) acetamide] | suppressed allodynia after IT administration | 63±17% | did not show a significant effect in suppressing allodynia | active metabolite with regard to allodynia suppression |  |  |  |  |  |  | 
2 | CCN(CC)CC(=O)Nc1c(C)cccc1C [lidocaine] |  |  |  |  | no anti-allodynic effect after termination of motor block | effective against allodynia by the intravenous, but not the intrathecal/regional routes | absent from the profile of DA rats | a large peak in the elution profile of SD rats, found to consist of a glucuronidated form of 3-OH MEGX | no effect on allodynia was seen | not similarly susceptible | susceptible to anti-allodynia effects of Lidocaine

Source: US6166085A, “Method of producing analgesia” (priority 1996, dated 2000)
